In one assay the target is T1, human recombinant HDAC6 (Homo sapiens, UniProt Q9UBN7).
T1 construct: purchased Calbiochem Inc. 382180
T1 sequence (Q9UBN7 1-1215): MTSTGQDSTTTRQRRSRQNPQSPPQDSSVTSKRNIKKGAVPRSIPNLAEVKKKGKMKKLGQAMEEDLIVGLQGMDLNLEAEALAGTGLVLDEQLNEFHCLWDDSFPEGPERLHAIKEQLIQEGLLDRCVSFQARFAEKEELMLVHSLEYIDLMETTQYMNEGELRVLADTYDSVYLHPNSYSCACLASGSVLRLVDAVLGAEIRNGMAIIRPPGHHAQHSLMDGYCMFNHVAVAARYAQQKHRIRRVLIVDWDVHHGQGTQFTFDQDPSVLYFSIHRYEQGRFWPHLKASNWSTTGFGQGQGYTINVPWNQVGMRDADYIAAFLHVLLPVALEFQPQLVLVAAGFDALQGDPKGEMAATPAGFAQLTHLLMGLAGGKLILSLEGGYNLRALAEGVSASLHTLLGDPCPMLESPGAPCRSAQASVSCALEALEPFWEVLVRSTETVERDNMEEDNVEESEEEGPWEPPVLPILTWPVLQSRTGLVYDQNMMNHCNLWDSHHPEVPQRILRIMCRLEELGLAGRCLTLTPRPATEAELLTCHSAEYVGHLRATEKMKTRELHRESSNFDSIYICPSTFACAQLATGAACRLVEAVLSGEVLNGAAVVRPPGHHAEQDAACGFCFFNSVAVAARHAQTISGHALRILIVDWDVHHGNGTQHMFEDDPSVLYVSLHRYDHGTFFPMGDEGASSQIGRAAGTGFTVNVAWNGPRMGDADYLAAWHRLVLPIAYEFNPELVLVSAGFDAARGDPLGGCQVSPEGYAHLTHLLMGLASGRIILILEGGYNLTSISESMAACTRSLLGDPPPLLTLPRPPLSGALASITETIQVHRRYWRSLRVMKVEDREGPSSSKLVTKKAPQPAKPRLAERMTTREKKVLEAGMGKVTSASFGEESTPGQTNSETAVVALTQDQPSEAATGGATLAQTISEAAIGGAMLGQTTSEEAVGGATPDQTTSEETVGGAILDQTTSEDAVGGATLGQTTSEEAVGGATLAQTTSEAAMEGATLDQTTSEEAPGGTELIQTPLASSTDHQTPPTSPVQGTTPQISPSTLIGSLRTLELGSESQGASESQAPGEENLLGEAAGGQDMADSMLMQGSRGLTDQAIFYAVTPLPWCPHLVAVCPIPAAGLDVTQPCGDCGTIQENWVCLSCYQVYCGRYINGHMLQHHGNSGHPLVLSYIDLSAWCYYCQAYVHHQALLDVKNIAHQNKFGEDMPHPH
Briefly: HDAC6 enzyme activity inhibition (HDAC Fluorimetric Drug Discovery Kit). The class given is biochemical. Here is the method: (§1) An experiment was conducted to identify the selectivity of the compound represented by formula I of the present invention to HDAC6 through an experiment on HDAC1 and HDAC6 enzyme activity inhibition.
(§2) A 5-fold dilution of the compound was divided into a 96-well plate, after which […] of the enzyme and 10 μM of the substrate were inserted into each well and subjected to reaction at 30° C. for 60 minutes, such that Fluor de Lys® Developer II (BML-KI176) was inserted thereinto and subjected to reaction for 30 minutes and finished.

The target of a further assay is T2, human recombinant HDAC1 (Homo sapiens, UniProt Q13547).
T2 construct: purchased Enzo Life Science, Inc. BML-SE456
T2 sequence (Q13547 whole entry): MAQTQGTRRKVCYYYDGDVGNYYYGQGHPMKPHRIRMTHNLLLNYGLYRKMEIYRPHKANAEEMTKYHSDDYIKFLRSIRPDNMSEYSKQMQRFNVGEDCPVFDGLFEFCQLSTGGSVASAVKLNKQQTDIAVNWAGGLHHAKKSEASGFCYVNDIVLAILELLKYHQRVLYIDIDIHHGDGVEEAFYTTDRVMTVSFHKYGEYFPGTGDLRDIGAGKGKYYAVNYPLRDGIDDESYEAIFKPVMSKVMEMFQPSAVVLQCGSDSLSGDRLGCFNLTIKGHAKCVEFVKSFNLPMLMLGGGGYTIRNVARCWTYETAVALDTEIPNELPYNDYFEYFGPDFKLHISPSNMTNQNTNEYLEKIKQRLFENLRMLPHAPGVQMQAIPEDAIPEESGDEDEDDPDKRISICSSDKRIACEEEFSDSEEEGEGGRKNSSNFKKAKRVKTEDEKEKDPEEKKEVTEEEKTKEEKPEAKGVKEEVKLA
Nature of the assay: HDAC1 enzyme activity inhibition (HDAC Fluorimetric Drug Discovery Kit). Type of assay: biochemical. The conditions noted are these: read-out: HDAC1. Here is the method: as §1, §2

The mark [1] stands for this setting: human recombinant HDAC6, IC50 calculated with GraphPad Prism.
Where [2] appears, read: human recombinant HDAC1, IC50 calculated with GraphPad Prism.
The mark [3] stands for this setting: human recombinant HDAC6, same protocol as HDAC1.
Setting [4] is: human recombinant HDAC1, Fluor de Lys substrate, 30° C. 60 minutes.

pIC50: −log10 of the molar value. Read-outs that look alike come from different tables or passages of the source.

We go through 19 compounds from patent US20230257372A1 (CHONG KUN DANG PHARMACEUTICAL CORP., priority 2020, published 2023).

Consider `C[C@@H]1CN(c2cccc(-c3cn(Cc4ccc(-c5nnc(C(F)F)o5)cc4)nn3)c2)C[C@H](C)N1C` [Compound 4441, 2-(difluoromethyl)-5-(4-((4-(3-((3R,5S)-3,4,5-trimethylpiperazin-1-yl)phenyl)-1H-1,2,3-triazol-1-yl)methyl)phenyl)-1,3,4-oxadiazole], for which, on human recombinant HDAC6 (HDAC1 IC50 / HDAC6 IC50), the “HDAC6 selectivity (fold)” value turned out to be 1315 fold. The pIC50 was 7.42 on human recombinant HDAC6 (setting [1]) and below 4.30 at human recombinant HDAC1 (setting [2]).

Consider `CCN1CCN(c2cccc(-c3cn(Cc4ccc(-c5nnc(C(F)F)o5)cc4F)nn3)c2F)CC1` [Compound 4577, 2-(difluoromethyl)-5-(4-((4-(3-(4-ethylpiperazin-1-yl)-2-fluorophenyl)-1H-1,2,3-triazol-1-yl)methyl)-3-fluorophenyl)-1,3,4-oxadiazole], for which the “HDAC6 selectivity (fold)” value at human recombinant HDAC6 (HDAC6 over HDAC1) turned out to be 2688 fold. For the same compound, the pIC50 on human recombinant HDAC6 (setting [3]) was 7.73; on human recombinant HDAC1 (setting [4]), below 4.30.

Consider `O=C(c1cccc(-c2cn(Cc3ccc(-c4nnc(C(F)F)o4)cn3)nn2)c1)N1CCOCC1` [Compound 3885, (3-(1-((5-(5-(difluoromethyl)-1,3,4-oxadiazol-2-yl)pyridin-2-yl)methyl)-1H-1,2,3-triazol-4-yl)phenyl)(morpholino)methanone], for which the “HDAC6 selectivity (fold)” value on human recombinant HDAC6 (HDAC1 IC50 / HDAC6 IC50) is given as 920 fold. Besides, the pIC50 is 7.27 at human recombinant HDAC6 (setting [1]) and below 4.30 at human recombinant HDAC1 (setting [2]).

As for `CC(C)N1CCN(C(=O)c2cccc(-c3cn(Cc4ccc(-c5nnc(C(F)F)o5)cn4)nn3)c2)CC1` [Compound 4448, (3-(1-((5-(5-(difluoromethyl)-1,3,4-oxadiazol-2-yl)pyridin-2-yl)methyl)-1H-1,2,3-triazol-4-yl)phenyl)(4-isopropylpiperazin-1-yl)methanone], the “HDAC6 selectivity (fold)” value at human recombinant HDAC6 (HDAC1 IC50 / HDAC6 IC50) is on record as 2873 fold. Moreover, the pIC50 is 7.76 at human recombinant HDAC6 (setting [1]) and below 4.30 at human recombinant HDAC1 (setting [2]).

Consider `CN1CCN(Cc2cccc(-c3cn(Cc4ccc(-c5nnc(C(F)F)o5)cn4)nn3)c2)CC1` [Compound 3917, 2-(difluoromethyl)-5-(6-((4-(3-((4-methylpiperazin-1-yl)methyl)phenyl)-1H-1,2,3-triazol-1-yl)methyl)pyridin-3-yl)-1,3,4-oxadiazole], for which, on human recombinant HDAC6 (HDAC1 IC50 / HDAC6 IC50), the “HDAC6 selectivity (fold)” value is reported as 1524 fold. Further, the pIC50 on human recombinant HDAC6 (setting [1]) is 7.48; at human recombinant HDAC1 (setting [2]), below 4.30.

Consider `CC(C)(C)OC(=O)Nc1cccc(-c2cn(Cc3ccc(-c4nnc(C(F)F)o4)cc3)nn2)c1` [Compound 3698, Tert-butyl (3-(1-(4-(5-(difluoromethyl)-1,3,4-oxadiazol-2-yl)benzyl)-1H-1,2,3-triazol-4-yl)phenyl)carbamate], for which, at human recombinant HDAC6 (HDAC1 IC50 / HDAC6 IC50), the “HDAC6 selectivity (fold)” value is reported as 1096 fold. For the same compound, the pIC50 on human recombinant HDAC6 (setting [1]) was 7.34; on human recombinant HDAC1 (setting [2]) it was below 4.30.

Turning to `CC(=O)N1CCC(c2cn(Cc3ccc(-c4nnc(C(F)F)o4)cn3)nn2)CC1` [Compound 3811, 1-(4-(1-((5-(5-(difluoromethyl)-1,3,4-oxadiazol-2-yl)pyridin-2-yl)methyl)-1H-1,2,3-triazol-4-yl)piperidin-1-yl)ethan-1-one], the “HDAC6 selectivity (fold)” value at human recombinant HDAC6 (HDAC1 IC50 / HDAC6 IC50) was found to be 241 fold. Besides, the pIC50 at human recombinant HDAC6 (setting [1]) is 6.68; on human recombinant HDAC1 (setting [2]), below 4.30.

For the compound `OCc1c(-c2ccccc2)nnn1Cc1ccc(-c2nnc(C(F)F)o2)cn1` [Compound 4478, (1-((5-(5-(difluoromethyl)-1,3,4-oxadiazol-2-yl)pyridin-2-yl)methyl)-4-phenyl-1H-1,2,3-triazol-5-yl)methanol], the “HDAC6 selectivity (fold)” value at human recombinant HDAC6 (HDAC1 IC50 / HDAC6 IC50) was found to be 437 fold. The pIC50 on human recombinant HDAC6 (setting [1]) is 6.94; at human recombinant HDAC1 (setting [2]) it was below 4.30.

On to `CN1CC(NCc2ccc(-c3cn(Cc4ccc(-c5nnc(C(F)F)o5)cn4)nn3)cc2)C1` [Compound 4567, N-(4-(1-((5-(5-(difluoromethyl)-1,3,4-oxadiazol-2-yl)pyridin-2-yl)methyl)-1H-1,2,3-triazol-4-yl)benzyl)-1-methylazetidin-3-amine], for which, on human recombinant HDAC6 (HDAC6 over HDAC1), the “HDAC6 selectivity (fold)” value was 1333 fold. The figures for the pIC50 at human recombinant HDAC6 (setting [3]) and at human recombinant HDAC1 (setting [4]) were 7.43 and below 4.30, respectively.

For `CN(C)C(C)(C)C(=O)Nc1cccc(-c2cn(Cc3ccc(-c4nnc(C(F)F)o4)cc3F)nn2)c1` [Compound 4353], at human recombinant HDAC6 (HDAC1 IC50 / HDAC6 IC50), the “HDAC6 selectivity (fold)” value turned out to be 1201 fold. Also, the pIC50 on human recombinant HDAC6 (setting [1]) was 7.38; at human recombinant HDAC1 (setting [2]), below 4.30.

In the case of `Fc1cc(-c2nnc(C(F)F)o2)ccc1Cn1cc(-c2nccs2)nn1` [Compound 17848, 2-(difluoromethyl)-5-(3-fluoro-4-((4-(thiazol-2-yl)-1H-1,2,3-triazol-1-yl)methyl)phenyl)-1,3,4-oxadiazole], the “HDAC6 selectivity (fold)” value on human recombinant HDAC6 (HDAC6 over HDAC1) is recorded as 646 fold. In addition, the pIC50 was 7.11 on human recombinant HDAC6 (setting [3]) and below 4.30 on human recombinant HDAC1 (setting [4]).

`Cc1ccccc1-c1cn(Cc2ccc(-c3nnc(C(F)F)o3)cn2)nn1` [Compound 3860, 2-(difluoromethyl)-5-(6-((4-(o-tolyl)-1H-1,2,3-triazol-1-yl)methyl)pyridin-3-yl)-1,3,4-oxadiazole]: at human recombinant HDAC6 (HDAC1 IC50 / HDAC6 IC50), the “HDAC6 selectivity (fold)” value stood at 391 fold. Further, the values for the pIC50 on human recombinant HDAC6 (setting [1]) and at human recombinant HDAC1 (setting [2]) were 6.89 and below 4.30, respectively.

As for `CN1C[C@@H]2C[C@H]1CN2c1cccc(-c2cn(Cc3ccc(-c4nnc(C(F)F)o4)cc3)nn2)c1` [Compound 4320, 2-(difluoromethyl)-5-(4-((4-(3-((1S,4S)-5-methyl-2,5-diazabicyclo[2.2.1]heptan-2-yl)phenyl)-1H-1,2,3-triazol-1-yl)methyl)phenyl)-1,3,4-oxadiazole], the “HDAC6 selectivity (fold)” value on human recombinant HDAC6 (HDAC1 IC50 / HDAC6 IC50) came to 719 fold. The pIC50 at human recombinant HDAC6 (setting [1]) was 7.16; on human recombinant HDAC1 (setting [2]) it was below 4.30.

For the compound `CCN1CC(c2cn(Cc3ccc(-c4nnc(C(F)F)o4)cn3)nn2)C1` [Compound 3951, 2-(difluoromethyl)-5-(6-((4-(1-ethylazetidin-3-yl)-1H-1,2,3-triazol-1-yl)methyl)pyridin-3-yl)-1,3,4-oxadiazole], the “HDAC6 selectivity (fold)” value at human recombinant HDAC6 (HDAC1 IC50 / HDAC6 IC50) stood at 81 fold. Also, the results for the pIC50 on human recombinant HDAC6 (setting [1]) and at human recombinant HDAC1 (setting [2]) were 6.21 and below 4.30, respectively.

As to `Cc1cc2ccc(-c3cn(Cc4ccc(-c5nnc(C(F)F)o5)cc4)nn3)cc2[nH]1` [Compound 4288], the “HDAC6 selectivity (fold)” value on human recombinant HDAC6 (HDAC1 IC50 / HDAC6 IC50) is given as 486 fold. In addition, the values for the pIC50 at human recombinant HDAC6 (setting [1]) and at human recombinant HDAC1 (setting [2]) were 6.99 and below 4.30, respectively.

For `CCOC(=O)N(C)c1cccc(-c2cn(Cc3ccc(-c4nnc(C(F)F)o4)cn3)nn2)c1` [Compound 3890], the “HDAC6 selectivity (fold)” value on human recombinant HDAC6 (HDAC1 IC50 / HDAC6 IC50) is given as 1319 fold. For the same compound, the pIC50 at human recombinant HDAC6 (setting [1]) was 7.42; on human recombinant HDAC1 (setting [2]) it was below 4.30.

As to `CCN1CCN(Cc2ccccc2-c2cn(Cc3ccc(-c4nnc(C(F)F)o4)cc3F)nn2)CC1` [Compound 4588, 2-(difluoromethyl)-5-(4-((4-(2-((4-ethylpiperazin-1-yl)methyl)phenyl)-1H-1,2,3-triazol-1-yl)methyl)-3-fluorophenyl)-1,3,4-oxadiazole], the “HDAC6 selectivity (fold)” value at human recombinant HDAC6 (HDAC6 over HDAC1) came out at 229 fold. In addition, the pIC50 at human recombinant HDAC6 (setting [3]) is 6.66; at human recombinant HDAC1 (setting [4]), below 4.30.

With `CN1CCN(c2cc(-c3cn(Cc4ccc(-c5nnc(C(F)F)o5)cc4)nn3)ccc2F)CC1` [Compound 4419, 2-(difluoromethyl)-5-(4-((4-(4-fluoro-3-(4-methylpiperazin-1-yl)phenyl)-1H-1,2,3-triazol-1-yl)methyl)phenyl)-1,3,4-oxadiazole], on human recombinant HDAC6 (HDAC1 IC50 / HDAC6 IC50), the “HDAC6 selectivity (fold)” value is recorded as 315 fold. Further, the pIC50 at human recombinant HDAC6 (setting [1]) was 6.80; at human recombinant HDAC1 (setting [2]), below 4.30.

Turning to `Fc1cc(-c2nnc(C(F)F)o2)ccc1Cn1cc(-c2ccc(F)c(N3CCN(C4CCC4)CC3)c2)nn1` [Compound 4426, 2-(4-((4-(3-(4-cyclobutylpiperazin-1-yl)-4-fluorophenyl)-1H-1,2,3-triazol-1-yl)methyl)-3-fluorophenyl)-5-(difluoromethyl)-1,3,4-oxadiazole], on human recombinant HDAC6 (HDAC1 IC50 / HDAC6 IC50), the “HDAC6 selectivity (fold)” value was determined as 334 fold. Further, the figures for the pIC50 at human recombinant HDAC6 (setting [1]) and on human recombinant HDAC1 (setting [2]) were 6.82 and below 4.30, respectively.
